Assay [1] concerns German cockroach (Blattella germanica). Description: Test Example 3: German cockroach knock down, spray in test chamber. The following applies: active ingredient concentration 0.00625%, 1.5 ml sprayed, counted 1 minutes after spraying, repeated twice. The class given is in vivo. Here is the method:
The formulation of the sample compound obtained in Formulation Example 7 was diluted with dichloromethane/deodorized kerosene=1/9 mixed solution so that the active ingredient concentration was 0.00625%, to prepare a test medicinal solution.
A container (8.75 cm in diameter, 7.5 cm in height, bottom covered 16-mesh iron net and inside wall painted butter for preventing tested pill bugs to escape) having 10 German cockroach (5 males and 5 females, Blattella germanica) therein was set on the bottom of a test chamber (46 cm×46 cm, height: 70 cm). From a height of 60 cm above the upper surface of the container, 1.5 ml of the test solution was sprayed using a spray gun at a spraying pressure of 0.4 kg/cm^2. After 30 seconds, the German cockroach were taken out and put into a clean plastic cup having 8.2 cm in diameter. The lid having holes was covered on the cup. 1 minutes after spraying, the number of knocked-down insects was counted (repeated twice).

A further assay has as its system adult houseflies. Put plainly: Test Example 2: housefly knock down, spray in cubic glass chamber. The class given is in vivo. The settings on record: active ingredient concentration 0.00625%, 0.7 ml sprayed, counted 10 minutes after spraying, repeated twice. Here is the method:
The formulation of the sample compound obtained in Formulation Example 7 was diluted with dichloromethane/deodorized kerosene=1/9 mixed solution so that the active ingredient concentration was 0.00625%, to prepare a test solution.
Ten adult houseflies (4 or 5 males and 4 or 5 females each) were left in a cubic glass chamber (70 cm at each side), and 0.7 ml of the test solution was sprayed through a small window at the side of the chamber using a spray gun at a spraying pressure of 0.9 kg/cm^2. 10 minutes after spraying, the number of knocked-down insects was counted (repeated twice).

In the case of `C#CCc1ccc(COC(=O)[C@@H]2[C@@H](/C=C(\C)C=NOC)C2(C)C)o1` [comparative compound (B), 5-(2-propynyl)furan-2-ylmethyl (1R)-trans-3-[(E)-3-methoxyimino-2-methyl-1-propenyl]-2,2-dimethylcyclopropanecarboxylate], in assay [1], the “knock down ratio of sample insects” value came out at 0%. With `C#CCN1CC(=O)N(COC(=O)[C@@H]2[C@@H](C=C(C)C)C2(C)C)C1=O` [comparative compound (A), 2,5-dioxo-3-(2-propynyl)imidazolidine-1-ylmethyl (1R)-trans-2,2-dimethyl-3-(2-methyl-1-propenyl)cyclopropane carboxylate], the “knock down ratio of sample insects” value in the assay on adult houseflies came out at 42%. `C#CCN1CC(=O)N(COC(=O)[C@@H]2[C@@H](/C=C(\C)C=NOC)C2(C)C)C1=O` [present compound (1), 2,5-dioxo-3-(2-propynyl)imidazolidin-1-ylmethyl (1R)-trans-3-[(E)-3-methoxyimino-2-methyl-1-propenyl]-2,2-dimethylcyclopropanecarboxylate]: the “knock down ratio of sample insects” value (with adult houseflies; in assay [1]) was 100% each time.

The values are drawn from patent US8039499B2, “Ester compound and its use” (Sumitomo Chemical Company, Limited, priority 2006, dated 2011).
